Data reported in patent publication US10494380B2, “Nitrogen-containing tricyclic derivatives having HIV replication inhibitory activity” (priority 2015, dated 2019).

tested on: HIV; assay: not given; assay type: cell-based; conditions: EC50 in the presence of human serum (25%) versus without human serum, MT-4 cells
Method: To confirm the influence of human serum on anti-HIV activity as necessary, human serum was added and determined EC50 in this condition. Human serum (100 μL/well) was dispensed into each anti-HIV active substance at a designated concentration dispensed 50 μL each in advance into a 96-well microtiter plate, and the plate was incubate at room temperature for 1 hour. To the serum-free plate, only culture medium (100 μL/well) was dispensed into 96-well microtiter plate. MT-4 cells (3×10^4 cells/well) was infected with 3 μL/well of HIV solution diluted to an appropriate concentration (600 pfu/50 μL) by the required number of wells and incubated at 37° C. for 1 hour. The infected cells were centrifuged at 1200 rpm for 5 minutes, the supernatant was discarded, and the infected cells were dispersed into culture medium for the required number of wells at 50 μL/well. Infected cell suspension was dispensed into a 96-well microtiter plate of which anti-HIV active substance and human serum prepared in advance. The cell mixture was mixed with a plate mixer and cultured in a CO2 incubator for 4 days. The EC50 in the presence of human serum was calculated in the same manner as in Test Example 1 and the ratio of EC50 in the presence of human serum and EC50 in the absence of human serum was calculated as the potency shift value. […]

Going from `Cc1ccc(-c2c([C@H](OC(C)(C)C)C(=O)O)c(C)c3c4c2cc(C)n4CCN3CCN2CCCC2)cc1` [Compound I-130] to `Cc1ccc(-c2c([C@H](OC(C)(C)C)C(=O)O)c(C)c3c4c2cc(C)n4CCN3CCN2CCC(F)(F)C2)cc1` [Compound I-162], the Potency shift value rises from 2.7 to 7.5.

Compared with `Cc1c([C@H](OC(C)(C)C)C(=O)O)c(-c2ccc(Cl)cc2)c2cc(C)n3c2c1N(C)C1COCC13` (stereo partly drawn) [Compound I-138], `Cc1c([C@H](OC(C)(C)C)C(=O)O)c(-c2ccc(Cl)cc2)c2cc(C)n3c2c1N(C)C1CNCC13` (stereo partly drawn) [Compound I-237] is lower in Potency shift value: 5.8 for the first, 2.4 for the second.

Compared with `Cc1c([C@H](OC(C)(C)C)C(=O)O)c(-c2ccc(Cl)cc2)c2cc(C)n3c2c1N(Cc1cnccn1)CC3` [Compound I-152], `Cc1c([C@H](OC(C)(C)C)C(=O)O)c(-c2ccc(F)cc2)c2cc(C)n3c2c1N(CC(=O)N(C)C)CC3` [Compound I-161] is lower in Potency shift value: 6.9 for the first, 1.9 for the second.

First: Cc1c(-c2c([C@H](OC(C)(C)C)C(=O)O)c(C)c3c4c2cc(C)n4CCN3C)cc(F)c2c1CCCO2 [Compound I-159]
Second: Cc1ccc(-c2c([C@H](OC(C)(C)C)C(=O)O)c(C)c3c4c2cc(C)n4CCN3c2cccc(C(F)(F)F)n2)cc1 [Compound I-285]
The Potency shift value of the first is higher: 8.8 for the first, 5.1 for the second.

First: Cc1c([C@H](OC(C)(C)C)C(=O)O)c(-c2ccc(Cl)cc2)c2cc(C)n3c2c1N(C(=O)C(=O)N(C)C)[C@@H](C)C3 [Compound I-168]
Second: Cc1c([C@H](OC(C)(C)C)C(=O)O)c(-c2ccc(Cl)cc2)c2cc(C)n3c2c1N(C)C(c1ccccc1)C3 (stereo partly drawn) [Compound I-333]
The Potency shift value of the first is lower: 2.9 for the first, 6.4 for the second.

Going from `Cc1c([C@H](OC(C)(C)C)C(=O)O)c(-c2ccc(Cl)cc2)c2cc(C)n3c2c1N(c1ncc(OCOCC[Si](C)(C)C)cn1)CC3` [Compound I-233] to `CCCO[C@H](C(=O)O)c1c(C)c2c3c(cc(C)n3CCN2c2ncc(OC)cn2)c1-c1ccc(Cl)cc1` [Compound I-297], the Potency shift value falls from 12 to 7.6.

Going from `CCO[C@H](C(=O)O)c1c(C)c2c3c(cc(C)n3CCN2c2ncc(OC)cn2)c1-c1ccc(Cl)cc1` [Compound I-296] to `CCCCO[C@H](C(=O)O)c1c(C)c2c3c(cc(C)n3CCN2c2ncc(OC)cn2)c1-c1ccc(Cl)cc1` [Compound I-325], the Potency shift value rises from 2.1 to 5.4.

Going from `COc1cnc(N2CCn3c(C)cc4c(-c5ccc(Cl)cc5)c([C@H](OCC5CC5)C(=O)O)c(C)c2c43)nc1` [Compound I-298] to `COc1cnc(N2CCn3c(C)cc4c(-c5ccc(Cl)cc5)c([C@H](OCCO)C(=O)O)c(C)c2c43)nc1` [Compound I-317], the Potency shift value falls from 11 to 1.3.

Work on `CCCCCO[C@H](C(=O)O)c1c(C)c2c3c(cc(C)n3CCN2c2ncc(OC)cn2)c1-c1ccc(Cl)cc1` [Compound I-326] yielded a Potency shift value of 5.8.

tested on: T125A mutant virus (HIV-1 NL-432 recombinant molecular clone, IN gene); assay: HIV replication inhibition assay against integrase 124/125 mutant virus (Test Example 2); assay type: cell-based; conditions: Human immunodeficiency virus 1, MT4, read-out: EC50 against T125A mutant virus, T125A mutant virus (HIV-1 NL-432 IN gene), MT-4 cells, MTT
Method: Persistently HIV (HTLV-IIIB strain) infected human T cell strain Molt-4 clone8 was cultured in RPMI-1640 medium supplemented with 10% fetal bovine serum and the supernatant was filtered, then the virus titer was measured and stored at −80° C. Polymorphic mutations in HIV-1-infected patients have been observed in amino acids 124 and 125 on the HIV-1 integrase (IN) gene. A point mutation was introduced on the amino acids 124 and/or 125 of IN gene of the HIV-1 NL-432 recombinant molecular clone to generate a mutant virus plasmid construct. These mutant virus plasmids were transfected into 293T cells, and after two days, the supernatant was filtered and then the virus titer was measured and stored at −80° C. Each anti-HIV active substance was diluted with culture medium described above to the designated concentration, which was dispensed into 96-well microtiter plate by 50 μL. Next, 100 μL of MT-4 cell suspension (2.5×10^4 cells) was dispensed into each well, then 50 μl of HIV-containing supernatant diluted with culture medium described above was added thereto (60 pfu (plaque forming unit)).
Cells were cultured at 37° C. in CO2 incubator for four days, then 30 μL of MTT (3-(4,5-dimethylthiazole-2-yl)-2,5-diphenyltetrazolyum bromide) reagent (5 mg/mL in PBS) was added to all wells followed by incubation for 1 hour. In this step, MTT was reduced to insoluble formazan in living cells. To elute generated formazan, 150 μL of the culture supernatant was removed from all wells, then 150 μL of cell lysis solution (10% Triton X-100 and 0.4% (v/v)-HCl containing isopropanol) was added thereto, followed by shaking with a plate mixer. The formazan was measured with micro plate reader at OD: 560 nm and 690 nm (reference wavelength) and the result was compared with the reference wells. EC50 means the compound concentration at which 50% of cytotoxicity caused by virus infection is inhibited.

`Cc1ccc(-c2c([C@H](OC(C)(C)C)C(=O)O)c(C)c3c4c2cc(C)n4CCN3CCN2CCCC2)cc1` [Compound I-130] and `Cc1ccc(-c2c([C@H](OC(C)(C)C)C(=O)O)c(C)c3c4c2cc(C)n4CCN3CCN2CCC(F)(F)C2)cc1` [Compound I-162] are within 1.5-fold of each other in EC50: 27 nM for the first, 35 nM for the second.

`Cc1c([C@H](OC(C)(C)C)C(=O)O)c(-c2ccc(Cl)cc2)c2cc(C)n3c2c1N(Cc1cnccn1)CC3` [Compound I-152] and `Cc1c([C@H](OC(C)(C)C)C(=O)O)c(-c2ccc(Cl)cc2)c2cc(C)n3c2c1N(Cc1cncnc1)CC3` [Compound I-153] are the same in EC50: 11 nM for the first, 11 nM for the second.

First: Cc1c([C@H](OC(C)(C)C)C(=O)O)c(-c2ccc(Cl)cc2)c2cc(C)n3c2c1N(c1ccc(F)cn1)CC3 [Compound I-154]
Second: Cc1c([C@H](OC(C)(C)C)C(=O)O)c(-c2ccc(Cl)cc2)c2cc(C)n3c2c1N(c1ccncc1)CC3 [Compound I-155]
The EC50 of the first is 4.5-fold lower: 13 nM for the first, 58 nM for the second. The first is the more potent here.

Going from `Cc1ccc(-c2c([C@H](OC(C)(C)C)C(=O)O)c(C)c3c4c2cc(C)n4C[C@@H](C)N3CCN2CCOCC2)cc1` [Compound I-158] to `C=CCN1CCn2c(C)cc3c(-c4ccc(C)cc4)c([C@H](OC(C)(C)C)C(=O)O)c(C)c1c32` [Compound I-294], the EC50 rises from 4.6 nM to 16 nM (3.5-fold). The first is the more potent here.

Going from `Cc1c(-c2c([C@H](OC(C)(C)C)C(=O)O)c(C)c3c4c2cc(C)n4CCN3C)cc(F)c2c1CCCO2` [Compound I-159] to `Cc1c(-c2c([C@H](OC(C)(C)C)C(=O)O)c(C)c3c4c2cc(C)n4CCN3C)ccc2c1NCCO2` [Compound I-160], the EC50 rises from 16 nM to 70 nM (4.4-fold).

Compared with `Cc1c([C@H](OC(C)(C)C)C(=O)O)c(-c2ccc(Cl)cc2)c2cc(C)n3c2c1N(c1ncc(OCc2ccc(F)cc2)cn1)CC3` [Compound I-236], `Cc1c([C@H](OC(C)(C)C)C(=O)O)c(-c2ccc(Cl)cc2)c2cc(C)n3c2c1N(c1ncc(OC(C)C)cn1)CC3` [Compound I-261] is 2.7-fold lower in EC50: 9.9 nM for the first, 3.7 nM for the second.

Going from `Cc1ccc(-c2c([C@H](OC(C)(C)C)C(=O)O)c(C)c3c4c2cc(C)n4CCN3c2ncc(Cl)cn2)cc1` [Compound I-263] to `Cc1ccc(-c2c([C@H](OC(C)(C)C)C(=O)O)c(C)c3c4c2cc(C)n4CCN3c2ncc(CO)cn2)cc1` [Compound I-290], the EC50 rises from 7.2 nM to 22 nM (3.1-fold). The first is the more potent here.

Compared with `Cc1ccc(-c2c([C@H](OC(C)(C)C)C(=O)O)c(C)c3c4c2cc(C)n4CCN3c2ncc(C3CC3)cn2)cc1` [Compound I-271], `COCCc1cnc(N2CCn3c(C)cc4c(-c5ccc(C)cc5)c([C@H](OC(C)(C)C)C(=O)O)c(C)c2c43)nc1` [Compound I-336] is 1.6-fold lower in EC50: 4.2 nM for the first, 2.7 nM for the second.

`COc1ccnc(N2CCn3c(C)cc4c(-c5ccc(C)cc5)c([C@H](OC(C)(C)C)C(=O)O)c(C)c2c43)c1` [Compound I-277] and `Cc1ccc(-c2c([C@H](OC(C)(C)C)C(=O)O)c(C)c3c4c2cc(C)n4CCN3c2ncc(Oc3ccccn3)cn2)cc1` [Compound I-339] are within 1.5-fold of each other in EC50: 14 nM for the first, 11 nM for the second.

`Cc1c([C@H](OC(C)(C)C)C(=O)O)c(-c2ccc(Cl)cc2)c2cc(C)n3c2c1N(c1ncc(C2=CCOCC2)cn1)CC3` [Compound I-300] and `Cc1ccc(-c2c([C@H](OC(C)(C)C)C(=O)O)c(Cl)c3c4c2cc(C)n4CCN3c2ncc(C)cn2)cc1` [Compound I-301] are within 1.5-fold of each other in EC50: 4.6 nM for the first, 3.3 nM for the second.

Compared with `COc1cnc(N2CCn3c(C)c(Cl)c4c(-c5ccc(C)cc5)c([C@H](OC(C)(C)C)C(=O)O)c(C)c2c43)nc1` [Compound I-323], `COc1cnc(N2CCn3c(C)c(Cl)c4c(-c5ccc(C)cc5)c([C@H](OC(C)(C)CO)C(=O)O)c(C)c2c43)nc1` [Compound I-324] is 3.9-fold higher in EC50: 16 nM for the first, 63 nM for the second. The first is the more potent here.

Compared with `Cc1c([C@H](OC(C)(C)C)C(=O)O)c(-c2ccc(Cl)cc2)c2cc(C)n3c2c1N(C)C(c1ccccc1)C3` (stereo partly drawn) [Compound I-334], `Cc1ccc(-c2c([C@H](OC(C)(C)C)C(=O)O)c(C)c3c4c2cc(C)n4CCN3c2ncc(Oc3cccnn3)cn2)cc1` [Compound I-342] is 7.2-fold lower in EC50: 93 nM for the first, 13 nM for the second.

Compared with `Cc1ccc(-c2c([C@H](OC(C)(C)C)C(=O)O)c(C)c3c4c2cc(C)n4CCN3c2ncc(Oc3cnccn3)cn2)cc1` [Compound I-341], `COc1cc(Oc2cnc(N3CCn4c(C)cc5c(-c6ccc(C)cc6)c([C@H](OC(C)(C)C)C(=O)O)c(C)c3c54)nc2)nc(OC)n1` [Compound I-346] is 2.4-fold higher in EC50: 4.1 nM for the first, 10 nM for the second. The first is the more potent here.

same assay, conditions: T125A mutant virus (HIV-1 NL-432 IN gene), MT-4 cells, MTT; read-out: EC50 against T125A mutant virus

Compared with `Cc1ccc(-c2c([C@H](OC(C)(C)C)C(=O)O)c(C)c3c4c2cc(C)n4CCN3c2ncc(N(C)S(C)(=O)=O)cn2)cc1` [Compound I-201], `Cc1ccc(-c2c([C@H](OC(C)(C)C)C(=O)O)c(C)c3c4c2cc(C)n4CCN3c2ncc(OCCNS(C)(=O)=O)cn2)cc1` [Compound I-222] is 6.4-fold higher in EC50: 14 nM for the first, 89 nM for the second.

Going from `CC(=O)Nc1cnc(N2CCn3c(C)cc4c(-c5ccc(C)cc5)c([C@H](OC(C)(C)C)C(=O)O)c(C)c2c43)nc1` [Compound I-202] to `Cc1c([C@H](OC(C)(C)C)C(=O)O)c(-c2ccc(Cl)cc2)c2cc(C)n3c2c1N(c1ncc(OC(F)F)cn1)CC3` [Compound I-214], the EC50 falls from 56 nM to 4 nM (14-fold).

`COc1cnc(N2CCn3c(C)cc4c(-c5ccc(Cl)cc5)c([C@H](OC(C)C)C(=O)O)c(C)c2c43)nc1` [Compound I-215] and `Cc1ccc(-c2c([C@H](OC(C)(C)C)C(=O)O)c(C)c3c4c2cc(C)n4C2(CCCC2)CN3C)cc1` [Compound I-302] are within 1.5-fold of each other in EC50: 47 nM for the first, 43 nM for the second.

same assay, conditions: read-out: EC50 against T125A mutant virus; T125A mutant virus (HIV-1 NL-432 IN gene), MT-4 cells, MTT

Going from `Cc1c([C@H](OC(C)(C)C)C(=O)O)c(-c2ccc(Cl)cc2)c2cc(C)n3c2c1N(C)C1COCC13` (stereo partly drawn) [Compound I-138] to `Cc1ccc(-c2c([C@H](OC(C)(C)C)C(=O)O)c(C)c3c4c2cc(C)n4C(C)CN3CCN(C)C)cc1` (stereo partly drawn) [Compound I-163], the EC50 rises from 1.5 nM to 38 nM (25-fold).
